Assay results as given in patent US20120115724A1, “METHOD OF CONTROLLING UNDESIRED VEGETATION” (SYNGENTA CROP PROTECTION LLC, priority 2009, published 2012).

Tests used:
[1] = system: AMARE Amaranthus retroflexus; assay: Post-emergence crop and weed test (Example 15); type: in vivo; settings: 360 h, 125 g/ha, after 15 days, read-out: Percentage damage AMARE
Procedure, shortened: (§1)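 Plants grown 14 days in a glasshouse (22/16 °C, 16 h light, 65% humidity) were sprayed post-emergence with active ingredient from a solvent/emulsifier stock diluted in water with 0.2% X-77. Damage was scored 15 days later on a 0–100 scale, where 100 is total damage.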

GALAP Galium aparine = assay: Post-emergence crop and weed test (Example 15); type: in vivo; settings: 360 h, 125 g/ha, after 15 days, read-out: Percentage damage GALAP
Procedure, shortened: as §1

CHEAL Chenopodium album = assay: Post-emergence crop and weed test (Example 15); type: in vivo; settings: 360 h, 125 g/ha, after 15 days, read-out: Percentage damage CHEAL
Procedure, shortened: as §1

[2] = system: EPHHL Euphorbia heterophylla; assay: Post-emergence crop and weed test (Example 15); type: in vivo; settings: 360 h, 125 g/ha, after 15 days, read-out: Percentage damage EPHHL
Procedure, shortened: as §1

[3] = system: ABUTH Abutilon theophrasti; assay: Post-emergence crop and weed test (Example 15); type: in vivo; settings: 360 h, 125 g/ha, after 15 days, read-out: Percentage damage ABUTH
Procedure, shortened: as §1

GLXMA Soybean = assay: Post-emergence crop and weed test (Example 15); type: in vivo; settings: Glycine max, 360 h, 125 g/ha, after 15 days, read-out: Percentage damage GLXMA
Procedure, shortened: as §1

IPOHE Ipomoea hederacea = assay: Post-emergence crop and weed test (Example 15); type: in vivo; settings: 360 h, 125 g/ha, after 15 days, read-out: Percentage damage IPOHE
Procedure, shortened: as §1

[4] = system: POLCO Polygonum convolvulus; assay: Post-emergence crop and weed test (Example 15); type: in vivo; settings: Fallopia convolvulus, 360 h, 125 g/ha, after 15 days, read-out: Percentage damage POLCO
Procedure, shortened: as §1

SIDSP Sida spinosa = assay: Post-emergence crop and weed test (Example 15); type: in vivo; settings: 360 h, 125 g/ha, after 15 days, read-out: Percentage damage SIDSP
Procedure, shortened: as §1

KCHSC Kochia scoparia = assay: Post-emergence crop and weed test (Example 15); type: in vivo; settings: Bassia scoparia, 360 h, 125 g/ha, after 15 days, read-out: Percentage damage KCHSC
Procedure, shortened: as §1

VERPE Veronica persica = assay: Post-emergence crop and weed test (Example 15); type: in vivo; settings: 360 h, 125 g/ha, after 15 days, read-out: Percentage damage VERPE
Procedure, shortened: as §1

SINAR Sinapis arvensis = assay: Post-emergence crop and weed test (Example 15); type: in vivo; settings: Mutarda arvensis, 360 h, 125 g/ha, after 15 days, read-out: Percentage damage SINAR
Procedure, shortened: as §1

[5] = system: XANST Xanthium strumarium; assay: Post-emergence crop and weed test (Example 15); type: in vivo; settings: 360 h, 125 g/ha, after 15 days, read-out: Percentage damage XANST
Procedure, shortened: as §1

[6] = system: Alopecurus myosuroides (ALOMY); assay: Pre-emergence biological efficacy (Example 13); type: in vivo; settings: Alopecurus myosuroides, 312 h; pre-emergence, 1,000 g/ha, after 13 days; read-out: Percentage damage ALOMY
Procedure, shortened: (§2)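 Phytotoxicity was rated on a 0 (no damage) to 100 (total damage) scale 13 days after treatment. Test compound was sprayed at 250 or 1000 g/ha onto soil-sown pots one day after sowing, using acetone/water (50:50) with 0.5% Tween 20 diluted in water.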

Solanum nigrum (SOLNI) [7] = assay: Pre-emergence biological efficacy (Example 13); type: in vivo; settings: Solanum nigrum, 312 h; pre-emergence, 1,000 g/ha, after 13 days; read-out: Percentage damage SOLNI
Procedure, shortened: as §2

Setaria faberi (SETFA) [8] = assay: Pre-emergence biological efficacy (Example 13); type: in vivo; settings: Setaria faberi, 312 h; pre-emergence, 1,000 g/ha, after 13 days; read-out: Percentage damage SETFA
Procedure, shortened: as §2

[9] = system: Ipomea hederaceae (IPOHE); assay: Pre-emergence biological efficacy (Example 13); type: in vivo; settings: Ipomoea hederacea, 312 h; pre-emergence, 1,000 g/ha, after 13 days; read-out: Percentage damage IPOHE
Procedure, shortened: as §2

[10] = system: Echinochloa crus-galli (ECHCG); assay: Pre-emergence biological efficacy (Example 13); type: in vivo; settings: Echinochloa crus-galli, 312 h; pre-emergence, 1,000 g/ha, after 13 days; read-out: Percentage damage ECHCG
Procedure, shortened: as §2

[11] = system: Amaranthus retroflexus (AMARE); assay: Pre-emergence biological efficacy (Example 13); type: in vivo; settings: Amaranthus retroflexus, 312 h; pre-emergence, 1,000 g/ha, after 13 days; read-out: Percentage damage AMARE
Procedure, shortened: as §2

[12] = system: Alopecurus myosuroides (ALOMY); assay: Post-emergence biological efficacy (Example 14); type: in vivo; settings: Alopecurus myosuroides, 312 h; post-emergence, 1,000 g/ha, after 13 days; read-out: Percentage damage ALOMY
Procedure, shortened: (§3)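 Post-emerg. spray, 250 or 1000 g/ha; vehicle acetone/H2O 50:50 + 0.5% Tween 20. Plants 8 d old at treatment; glasshouse 24/16 °C, 14 h photoperiod, 65% humidity. Scored d13, 0–100 damage.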

Solanum nigrum (SOLNI) [13] = assay: Post-emergence biological efficacy (Example 14); type: in vivo; settings: Solanum nigrum, 312 h; post-emergence, 1,000 g/ha, after 13 days; read-out: Percentage damage SOLNI
Procedure, shortened: as §3

Setaria faberi (SETFA) [14] = assay: Post-emergence biological efficacy (Example 14); type: in vivo; settings: Setaria faberi, 312 h; post-emergence, 1,000 g/ha, after 13 days; read-out: Percentage damage SETFA
Procedure, shortened: as §3

[15] = system: Ipomea hederaceae (IPOHE); assay: Post-emergence biological efficacy (Example 14); type: in vivo; settings: Ipomoea hederacea, 312 h; post-emergence, 1,000 g/ha, after 13 days; read-out: Percentage damage IPOHE
Procedure, shortened: as §3

[16] = system: Echinochloa crus-galli (ECHCG); assay: Post-emergence biological efficacy (Example 14); type: in vivo; settings: Echinochloa crus-galli, 312 h; post-emergence, 1,000 g/ha, after 13 days; read-out: Percentage damage ECHCG
Procedure, shortened: as §3

[17] = system: Amaranthus retroflexus (AMARE); assay: Post-emergence biological efficacy (Example 14); type: in vivo; settings: Amaranthus retroflexus, 312 h; post-emergence, 1,000 g/ha, after 13 days; read-out: Percentage damage AMARE
Procedure, shortened: as §3

**Q.** Which pest or weed control at 125 g/ha [1] does the source give for `C=Cc1c(NCc2ccco2)nc(-c2ccc(Cl)c(OC)c2F)nc1C(=O)OC` [Compound 6, 2-(4-chloro-2-fluoro-3-methoxyphenyl)-5-ethenyl-4-(furan-2-ylmethylamino)-6-methoxycarbonylpyrimidine] here?
**A.** The pest or weed control at 125 g/ha was 100%.

**Q.** What about the pest or weed control at 125 g/ha (GALAP Galium aparine) of the same compound?
**A.** Its pest or weed control at 125 g/ha is 70%.

**Q.** What about the pest or weed control at 125 g/ha (CHEAL Chenopodium album) of the same compound?
**A.** The pest or weed control at 125 g/ha was 90%.

**Q.** What about the pest or weed control at 125 g/ha [2] of the same compound?
**A.** The pest or weed control at 125 g/ha was 90%.

**Q.** And the pest or weed control at 125 g/ha [3]?
**A.** The pest or weed control at 125 g/ha was 80%.

**Q.** And the plant injury at 125 g/ha (GLXMA Soybean)?
**A.** The plant injury at 125 g/ha was 10%.

**Q.** And the pest or weed control at 125 g/ha (IPOHE Ipomoea hederacea)?
**A.** The pest or weed control at 125 g/ha was 80%.

**Q.** And the pest or weed control at 125 g/ha [4]?
**A.** Its pest or weed control at 125 g/ha is 70%.

**Q.** And the pest or weed control at 125 g/ha (SIDSP Sida spinosa)?
**A.** Its pest or weed control at 125 g/ha is 80%.

**Q.** And the pest or weed control at 125 g/ha (KCHSC Kochia scoparia)?
**A.** Its pest or weed control at 125 g/ha is 60%.

**Q.** What about the pest or weed control at 125 g/ha (VERPE Veronica persica) of the same compound?
**A.** Its pest or weed control at 125 g/ha is 70%.

**Q.** What about the pest or weed control at 125 g/ha (SINAR Sinapis arvensis) of the same compound?
**A.** Its pest or weed control at 125 g/ha is 60%.

**Q.** And the pest or weed control at 125 g/ha [5]?
**A.** Its pest or weed control at 125 g/ha is 100%.

**Q.** And the pest or weed control at 1000 g/ha [6]?
**A.** The pest or weed control at 1000 g/ha was 70%.

**Q.** And the pest or weed control at 1000 g/ha (Solanum nigrum (SOLNI) [7])?
**A.** Its pest or weed control at 1000 g/ha is 100%.

**Q.** What about the pest or weed control at 1000 g/ha (Setaria faberi (SETFA) [8]) of the same compound?
**A.** Its pest or weed control at 1000 g/ha is 80%.

**Q.** What about the pest or weed control at 1000 g/ha [9] of the same compound?
**A.** Its pest or weed control at 1000 g/ha is 90%.

**Q.** What about the pest or weed control at 1000 g/ha [10] of the same compound?
**A.** Its pest or weed control at 1000 g/ha is 80%.

**Q.** What about the pest or weed control at 1000 g/ha [11] of the same compound?
**A.** Its pest or weed control at 1000 g/ha is 100%.

**Q.** What about the pest or weed control at 1000 g/ha [12] of the same compound?
**A.** The pest or weed control at 1000 g/ha was 80%.

**Q.** And the pest or weed control at 1000 g/ha (Solanum nigrum (SOLNI) [13])?
**A.** The pest or weed control at 1000 g/ha was 90%.

**Q.** What about the pest or weed control at 1000 g/ha (Setaria faberi (SETFA) [14]) of the same compound?
**A.** The pest or weed control at 1000 g/ha was 90%.

**Q.** And the pest or weed control at 1000 g/ha [15]?
**A.** The pest or weed control at 1000 g/ha was 80%.

**Q.** And the pest or weed control at 1000 g/ha [16]?
**A.** The pest or weed control at 1000 g/ha was 80%.

**Q.** What about the pest or weed control at 1000 g/ha [17] of the same compound?
**A.** The pest or weed control at 1000 g/ha was 100%.

**Q.** What about the melting point of the same compound?
**A.** The melting point was 100 to 102 °C.
